In patent US20240002391A1, “4-ALKOXYPYRROLO[2,1-F][1,2,4]TRIAZINES AND PREPARATION AND USES THEREOF” (BioSplice Therapeutics, Inc., priority 2022, published 2024):

Biological target: recombinant DYRK1A kinase (Homo sapiens (Human), UniProt Q13627)
Experiment: DYRK1A kinase assay (Ser/Thr 18 peptide Z-lyte FRET)
Type: biochemical
Conditions: DYRK1A kinase activity, Z-lyte Ser/Thr 18 peptide, 15 μM ATP; method text calls the value IC50; read-out: EC50 (the source's name)
Method in brief: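 Z-lyte FRET read-out: coumarin (Em 455) over fluorescein (Em 520) emission ratio, converted to percent phosphorylation after 1 h development. Reaction: 0.25 μg/mL kinase, 15 μM ATP, 4 μM peptide, 1 h RT with compound, duplicate wells. IC50s fitted by non-linear regression.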

Structure (SMILES)	IC50 [nM]
COc1nc(N[C@@H]2CN(C(C)=O)C[C@@H]2F)nn2ccc(-c3ccc4nnn(CCF)c4c3)c12 [Compound 660, 1-((3S,4R)-3-Fluoro-4-((5-(1-(2-fluoroethyl)-1H-benzo[d][1,2,3]triazol-6-yl)-4-methoxypyrrolo[2,1-f][1,2,4]triazin-2-yl)amino)pyrrolidin-1-yl)ethan-1-one]	< 0.2
COc1nc(N[C@H]2CCN(C(C)=O)C[C@H]2F)nn2ccc(-c3ccc4nnn(CCF)c4c3)c12 [Compound 664, 1-((3R,4S)-3-Fluoro-4-((5-(1-(2-fluoroethyl)-1H-benzo[d][1,2,3]triazol-6-yl)-4-methoxypyrrolo[2,1-f][1,2,4]triazin-2-yl)amino)piperidin-1-yl)ethan-1-one]	1.6
COc1nc(N[C@H]2CCN(C3COC3)C[C@H]2F)nn2ccc(-c3ccc4nnn(CCF)c4c3)c12 [Compound 666, N-((3R,4S)-3-Fluoro-1-(oxetan-3-yl)piperidin-4-yl)-5-(1-(2-fluoroethyl)-1H-benzo[d][1,2,3]triazol-6-yl)-4-methoxypyrrolo[2,1-f][1,2,4]triazin-2-amine]	1.1
COc1nc(N[C@H]2CC[C@](C)(O)CC2)nn2ccc(-c3ccc4nnn(/C=C/F)c4c3)c12 [Compound 672, (1r,4r)-4-((5-(1-((E)-2-fluorovinyl)-1H-benzo[d][1,2,3]triazol-6-yl)-4-methoxypyrrolo[2,1-f][1,2,4]triazin-2-yl)amino)-1-methylcyclohexan-1-ol]	5.9
COc1nc(N[C@H]2CCN(C3(C#N)COC3)C[C@H]2F)nn2ccc(-c3ccc4nnn(C(C)C)c4c3)c12 [Compound 690, 3-((3R,4S)-3-fluoro-4-((5-(1-isopropyl-1H-benzo[d][1,2,3]triazol-6-yl)-4-methoxypyrrolo[2,1-f][1,2,4]triazin-2-yl)amino)piperidin-1-yl)oxetane-3-carbonitrile]	7.8
COc1nc(NCC(C)(C)C#N)nn2ccc(-c3ccc4nnn(CC(F)F)c4c3)c12 [Compound 695, 3-((5-(1-(2,2-Difluoroethyl)-1H-benzo[d][1,2,3]triazol-6-yl)-4-methoxypyrrolo[2,1-f][1,2,4]triazin-2-yl)amino)-2,2-dimethylpropanenitrile]	1.3
COc1nc(NCC(C)(C)O)nn2ccc(-c3ccc4nnn(CC(F)F)c4c3)c12 [Compound 696, 1-((5-(1-(2,2-Difluoroethyl)-1H-benzo[d][1,2,3]triazol-6-yl)-4-methoxypyrrolo[2,1-f][1,2,4]triazin-2-yl)amino)-2-methylpropan-2-ol]	1.3
COc1nc(N[C@H]2C[C@@H](OCCO)C2)nn2ccc(-c3ccc4nnn(CC(F)F)c4c3)c12 [Compound 699, 2-(cis-3-((5-(1-(2,2-Difluoroethyl)-1H-benzo[d][1,2,3]triazol-6-yl)-4-methoxypyrrolo[2,1-f][1,2,4]triazin-2-yl)amino)cyclobutoxy)ethan-1-ol]	1.4
COc1nc(N[C@H]2C[C@@](C)(O)C2)nn2ccc(-c3ccc4nnn(CC(F)F)c4c3)c12 [Compound 710, (1s,3s)-3-((5-(1-(2,2-Difluoroethyl)-1H-benzo[d][1,2,3]triazol-6-yl)-4-methoxypyrrolo[2,1-f][1,2,4]triazin-2-yl)amino)-1-methylcyclobutan-1-ol]	0.9
COc1nc(N[C@H]2C[C@](C)(O)C2)nn2ccc(-c3ccc4nnn(CC(F)F)c4c3)c12 [Compound 711, (1r,3r)-3-((5-(1-(2,2-Difluoroethyl)-1H-benzo[d][1,2,3]triazol-6-yl)-4-methoxypyrrolo[2,1-f][1,2,4]triazin-2-yl)amino)-1-methylcyclobutan-1-ol]	0.5
COc1nc(N[C@H]2CC[C@@H](NC(C)=O)CC2)nn2ccc(-c3ccc4nnn(CC(F)F)c4c3)c12 [Compound 717, N-(cis-4-((5-(1-(2,2-Difluoroethyl)-1H-benzo[d][1,2,3]triazol-6-yl)-4-methoxypyrrolo[2,1-f][1,2,4]triazin-2-yl)amino)cyclohexyl)acetamide]	2.3
COc1nc(N[C@H]2CC[C@@H](O)CC2)nn2ccc(-c3ccc4nnn(CC(F)F)c4c3)c12 [Compound 718, cis-4-((5-(1-(2,2-Difluoroethyl)-1H-benzo[d][1,2,3]triazol-6-yl)-4-methoxypyrrolo[2,1-f][1,2,4]triazin-2-yl)amino)cyclohexan-1-ol]	0.5
COc1nc(N[C@H]2CC[C@H](O)CC2)nn2ccc(-c3ccc4nnn(CC(F)F)c4c3)c12 [Compound 719, trans-4-((5-(1-(2,2-Difluoroethyl)-1H-benzo[d][1,2,3]triazol-6-yl)-4-methoxypyrrolo[2,1-f][1,2,4]triazin-2-yl)amino)cyclohexan-1-ol]	0.3
COc1nc(NC2CCC(C)(C#N)CC2)nn2ccc(-c3ccc4nnn(CC(F)F)c4c3)c12 (stereo not drawn) [Compound 721, 4-((5-(1-(2,2-Difluoroethyl)-1H-benzo[d][1,2,3]triazol-6-yl)-4-methoxypyrrolo[2,1-f][1,2,4]triazin-2-yl)amino)-1-methylcyclohexane-1-carbonitrile]	5.7
COc1nc(N[C@H]2CC[C@@](C)(O)CC2)nn2ccc(-c3ccc4nnn(CC(F)F)c4c3)c12 [Compound 724, (1s,4s)-4-((5-(1-(2,2-Difluoroethyl)-1H-benzo[d][1,2,3]triazol-6-yl)-4-methoxypyrrolo[2,1-f][1,2,4]triazin-2-yl)amino)-1-methylcyclohexan-1-ol]	1.1

The remaining lines, values ahead:

IC50 [nM]	Structure (SMILES)
3.9	CCN1CC[C@@H](Nc2nc(OC)c3c(-c4ccc5nnn(C)c5c4)ccn3n2)C(F)(F)C1 [Compound 627, (R)—N-(1-Ethyl-3,3-difluoropiperidin-4-yl)-4-methoxy-5-(1-methyl-1H-benzo[d][1,2,3]triazol-6-yl)pyrrolo[2,1-f][1,2,4]triazin-2-amine]
6.3	COc1nc(N[C@@H]2CCN(C3COC3)CC2(F)F)nn2ccc(-c3ccc4nnn(C)c4c3)c12 [Compound 628, (R)—N-(3,3-Difluoro-1-(oxetan-3-yl)piperidin-4-yl)-4-methoxy-5-(1-methyl-1H-benzo[d][1,2,3]triazol-6-yl)pyrrolo[2,1-f][1,2,4]triazin-2-amine]
4.9	COc1nc(N[C@H]2CCN(C)C[C@H]2F)nn2cc(F)c(-c3ccc4nnn(C)c4c3)c12 [Compound 630, 6-Fluoro-N-((3R,4S)-3-fluoro-1-methylpiperidin-4-yl)-4-methoxy-5-(1-methyl-1H-benzo[d][1,2,3]triazol-6-yl)pyrrolo[2,1-f][1,2,4]triazin-2-amine]
3.4	CCn1nnc2ccc(-c3ccn4nc(N[C@H]5CCN(C6COC6)C[C@H]5F)nc(OC)c34)cc21 [Compound 646, 5-(1-Ethyl-1H-benzo[d][1,2,3]triazol-6-yl)-N-((3R,4S)-3-fluoro-1-(oxetan-3-yl)piperidin-4-yl)-4-methoxypyrrolo[2,1-f][1,2,4]triazin-2-amine]
1.6	COc1nc(N[C@@H]2CCN(C(C)=O)CC2(F)F)nn2ccc(-c3ccc4nnn(CCF)c4c3)c12 [Compound 669, (R)-1-(3,3-Difluoro-4-((5-(1-(2-fluoroethyl)-1H-benzo[d][1,2,3]triazol-6-yl)-4-methoxypyrrolo[2,1-f][1,2,4]triazin-2-yl)amino)piperidin-1-yl)ethan-1-one]
0.8	COc1nc(N[C@@H]2CCN(C3COC3)CC2(F)F)nn2ccc(-c3ccc4nnn(CCF)c4c3)c12 [Compound 670, (R)—N-(3,3-Difluoro-1-(oxetan-3-yl)piperidin-4-yl)-5-(1-(2-fluoroethyl)-1H-benzo[d][1,2,3]triazol-6-yl)-4-methoxypyrrolo[2,1-f][1,2,4]triazin-2-amine]
5.3	COc1nc(NC2CCC(=O)N(C)C2)nn2ccc(-c3ccc4nnn(/C=C/F)c4c3)c12 (stereo not drawn) [Compound 673, (E)-5-((5-(1-(2-Fluorovinyl)-1H-benzo[d][1,2,3]triazol-6-yl)-4-methoxypyrrolo[2,1-f][1,2,4]triazin-2-yl)amino)-1-methylpiperidin-2-one]
1.9	COc1nc(N[C@H]2CC[C@](C)(O)CC2)nn2ccc(-c3ccc4nnn(C(C)C)c4c3)c12 [Compound 681, (1r,4r)-4-((5-(1-Isopropyl-1H-benzo[d][1,2,3]triazol-6-yl)-4-methoxypyrrolo[2,1-f][1,2,4]triazin-2-yl)amino)-1-methylcyclohexan-1-ol]
3.4	COc1nc(N[C@H]2CCN(C(C)=O)C[C@H]2F)nn2ccc(-c3ccc4nnn(C(C)C)c4c3)c12 [Compound 686, 1-((3R,4S)-3-Fluoro-4-((5-(1-isopropyl-1H-benzo[d][1,2,3]triazol-6-yl)-4-methoxypyrrolo[2,1-f][1,2,4]triazin-2-yl)amino)piperidin-1-yl)ethan-1-one]
2.3	COc1nc(N[C@H]2CCN(C3COC3)C[C@H]2F)nn2ccc(-c3ccc4nnn(C(C)C)c4c3)c12 [Compound 688, N-((3R,4S)-3-fluoro-1-(oxetan-3-yl)piperidin-4-yl)-5-(1-isopropyl-1H-benzo[d][1,2,3]triazol-6-yl)-4-methoxypyrrolo[2,1-f][1,2,4]triazin-2-amine]
1.4	COc1nc(N[C@@H]2CCN(C(C)=O)CC2(F)F)nn2ccc(-c3ccc4nnn(C(C)C)c4c3)c12 [Compound 691, (R)-1-(3,3-Difluoro-4-((5-(1-isopropyl-1H-benzo[d][1,2,3]triazol-6-yl)-4-methoxypyrrolo[2,1-f][1,2,4]triazin-2-yl)amino)piperidin-1-yl)ethan-1-one]
1.2	COc1nc(N[C@H]2C[C@@](C)(NC(C)=O)C2)nn2ccc(-c3ccc4nnn(CC(F)F)c4c3)c12 [Compound 702, N-((1s,3s)-3-((5-(1-(2,2-Difluoroethyl)-1H-benzo[d][1,2,3]triazol-6-yl)-4-methoxypyrrolo[2,1-f][1,2,4]triazin-2-yl)amino)-1-methylcyclobutyl)acetamide]
